Experimental data reported in US20110091931A1, “Methods and Kits for Determining Oxygen Free Radical (OFR) Levels in Animal and Human Tissues as a Prognostic Marker for Cancer and Other Pathophysiologies” (COLBY PHARMACEUTICAL COMPANY, priority 2009, published 2011).
Read-outs that look alike come from different tables or passages of the source.

Key:
prostate cancer cells = settings: androgen-dependent and androgen-independent prostate cancer cells; cited from earlier work
LNCaP cells [1] = test: DCF dye oxidation assay of androgen (R1881) induced ROS production; format: cell-based, human; settings: cells (si22) transfected with vector transcribing siRNA against SSAT
Description: SSAT induction is a major source of androgen induced oxidative stress. In order to confirm that SSAT was the major source of androgen induced oxidative stress, we developed and used a stable LNCaP cell clone transfected with plasmid transcribing siRNA designed to silence SSAT mRNA expression. The SSAT mRNA level in these cells was determined by qRT-PCR method. In the cells transfected only with the vector, the SSAT mRNA level increased by over 8-fold after 96 h treatment with R1881, whereas in cells stably transfected with SSAT siRNA (si22), R1881 under similar treatment condition induced less than 2-fold increase in the SSAT transcript, showing over 75% silencing of SSAT mRNA expression. The ROS production induced by androgen analog R1881 in these cells was measured by DCF dye oxidation assay. The green fluorescence of oxidized DCF in androgen treated LNCaP cells was shown. The effect of SSAT silencing on the R1881 induced ROS production measured by DCF assay was also shown. The ratio of DCF fluorescence (green):DNA fluorescence (blue) for each of the treated well of a 96 well plate normalized to that of the average of control untreated wells represents the ROS level per cell relative to that in control untreated cells. The data points are the mean of numbers obtained from repeat experiments using thirty identically treated wells.
Each data point was an average of readings from six wells repeated twice in triplicates. […] The ROS levels of all CPC-200 pretreated cells were normalized to the ROS levels of cells treated with CPC-200 alone.

[2] = system: LNCaP human prostate cancer cells; settings: 1 nM metribolone, 96 h; cited from earlier work
Androgen Receptor (AR) = Androgen Receptor (AR) (Homo sapiens, UniProt P10275, T878A); settings: LNCaP cells; for fluorescence score, geometric mean / fluorescence score, mean after logarithmic transformation: 40 cells
Androgen Receptor (AR), sequence (P10275 whole entry T878A): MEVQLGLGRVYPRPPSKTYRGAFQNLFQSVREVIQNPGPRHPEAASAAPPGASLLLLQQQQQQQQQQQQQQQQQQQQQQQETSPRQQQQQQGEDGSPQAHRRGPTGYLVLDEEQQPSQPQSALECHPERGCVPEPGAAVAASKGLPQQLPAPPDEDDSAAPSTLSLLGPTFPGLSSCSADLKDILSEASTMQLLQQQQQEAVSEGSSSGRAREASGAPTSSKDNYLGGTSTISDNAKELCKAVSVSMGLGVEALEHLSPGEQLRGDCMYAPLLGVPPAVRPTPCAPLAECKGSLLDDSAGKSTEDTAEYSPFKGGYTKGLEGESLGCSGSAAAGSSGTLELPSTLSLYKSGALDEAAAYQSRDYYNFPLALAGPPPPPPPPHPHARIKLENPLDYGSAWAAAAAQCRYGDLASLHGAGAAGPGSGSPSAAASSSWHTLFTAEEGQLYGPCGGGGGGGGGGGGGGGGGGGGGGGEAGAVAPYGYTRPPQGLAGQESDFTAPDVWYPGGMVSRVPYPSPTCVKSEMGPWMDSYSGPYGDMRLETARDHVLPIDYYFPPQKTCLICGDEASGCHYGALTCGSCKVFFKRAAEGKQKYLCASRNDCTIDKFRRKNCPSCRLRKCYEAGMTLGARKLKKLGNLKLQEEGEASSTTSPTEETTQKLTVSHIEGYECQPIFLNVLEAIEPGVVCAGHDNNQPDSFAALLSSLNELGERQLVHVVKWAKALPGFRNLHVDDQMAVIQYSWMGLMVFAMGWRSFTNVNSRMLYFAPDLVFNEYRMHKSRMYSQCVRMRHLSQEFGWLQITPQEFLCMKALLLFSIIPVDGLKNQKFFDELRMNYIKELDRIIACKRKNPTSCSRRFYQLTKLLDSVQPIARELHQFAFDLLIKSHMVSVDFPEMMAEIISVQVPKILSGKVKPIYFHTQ
Description: The quantitation of subcellular fluorescence was further validated using a known system—nuclear translocation of AR in LNCaP cells treated with androgen (dihydrotestosterone) or androgen analog metribolone. […] LNCaP cells in charcoal stripped androgen depleted medium are grown for 6 days in the presence of low (0.05 nM) metribolone and 4 more days in the presence of high (1 nM) metribolone. […] For objective analysis of the response, a quantitation of the IHC fluorescence is necessary. The Bioimager was used to quantitate the IHC fluorescence of AR in the nuclei and in the cytoplasm of about 40 cells from four random areas of the microscopic field from each plate.

SSAT = SSAT mRNA level by qRT-PCR in LNCaP cells; format: cell-based, human
Description: Each data point was an average of readings from six identically treated LNCaP prostate cancer cell sample wells with readings repeated twice in triplicate sets.
In order to confirm that SSAT was the major source of androgen induced oxidative stress, we developed and used a stable LNCaP cell clone transfected with plasmid transcribing siRNA designed to silence SSAT mRNA expression. The SSAT mRNA level in these cells was determined by qRT-PCR method. […] The ratio of DCF fluorescence (green):DNA fluorescence (blue) for each of the treated well of a 96 well plate normalized to that of the average of control untreated wells represents the ROS level per cell relative to that in control untreated cells. The data points are the mean of numbers obtained from repeat experiments using thirty identically treated wells.

LNCaP cells [3] = test: HPLC quantitation of polyamine and acetyl polyamine levels in LNCaP cells; format: cell-based, human; settings: R1881 1 nM, 96 h
Excerpt: This method is routinely used in the analytical laboratory of the core facility of Cancer Centers and was accessible for quantitative assays necessary for the PK/PD determinations. […] Each data point was an average of two determinations where sample cell pellets were collected from three independent experiments.

[4] = system: SSAT (spermidine/spermine acetyl transferase) gene; test: DNA microarray analysis of gene expression (Affymetrix Gene chip Array) in LNCaP cells; format: cell-based, human; settings: 1 nM R1881, 96 h vs untreated
Description: SSAT induction is a mechanism of ROS production in CaP cells. In our search for the biochemical mechanism and convenient diagnostic monitoring of androgen-induced ROS production in prostate cells, a DNA microarray analysis of gene expression was also performed using the Affymetrix Gene chip Array We used untreated androgen dependent LNCaP cells and cells treated with 1 nM androgen […] (a well-accepted androgen analog routinely used due to its stability) for 96 h for these studies. […] We noted with considerable interest that among the list of genes that are overexpressed by more than an order of magnitude after androgen-treatment, SSAT is the only enzyme that is directly related to a ROS-generating biochemical pathway.

[5] = system: LNCaP human prostate cancer cells; test: DCFH dye oxidation kinetics (ROS, v0) in nuclei and cytoplasm of LNCaP cells; format: cell-based; settings: metribolone treatment over 24-96 h
Description: Standardization of cell-based fluorescence quantitation assay. We standardized the BD Pathway Bioimager quantitation of cellular ROS using a well-established cell culture based system. […] The ROS levels in these published studies were determined by monitoring DCFH dye oxidation, where DCFH is oxidized to DCF by ROS to yield quantifiable green fluorescence. The DCF fluorescence in live cell cytoplasm and nuclei (FIG. 2B) were quantitated by using the Hoechst 33342 dye staining of the cell nuclei (blue fluorescence in FIG. 2) that allows for auto focusing, positioning and mapping the contour of the cell nuclei and cytoplasms.
(1) Kinetics of DCF dye oxidation: Oxidation of DCFH to fluorescence DCF dye is a relatively fast reaction that is usually complete within 30-60 minutes. […] Curve fitting of the first 20-30 min of the plot of DCF fluorescence intensity vs. time with a pseudo-first order reaction kinetics yields the initial velocity (v0) values of the reaction (see below), which is directly proportional to the ROS concentration at the time point of DCF dye addition.
(1) Real-time kinetics of DCF dye oxidation in cell nuclei and cytoplasm: DCF dye oxidation kinetics in the nuclei and cytoplasm of LNCaP cells were determined using the BD Bioimager software coupled with Sigmaplot curve-fitting program. […]

Row | SMILES | activities against prostate cancer cells (prostate cancer cells) | R1881 induced ROS levels (LNCaP cells [1]) | ROS production (DCFH dye oxidation) [2] | fluorescence score, geometric mean (Androgen Receptor (AR); 0.05 nM metribolone (control)) | fluorescence score, mean after logarithmic transformation (Androgen Receptor (AR); 0.05 nM metribolone (control)) | increase in the ratio of nuclear fluorescence intensities over the cytoplasmic intensities (AR IHC) (Androgen Receptor (AR); 1 nM metribolone compared to 0.05 nM metribolone) [fold] | fluorescence score, geometric mean (Androgen Receptor (AR); 1 nM metribolone) | fluorescence score, mean after logarithmic transformation (Androgen Receptor (AR); 1 nM metribolone) | cells responding dramatically (nuclear localization of AR) (Androgen Receptor (AR); high (1 nM) metribolone) [%] | increase in the SSAT transcript (SSAT; LNCaP cells stably transfected with SSAT siRNA (si22), 96 h R1881) | increase in SSAT mRNA level (SSAT; LNCaP cells transfected only with the vector, 96 h R1881) | SSAT over-expression, dependence on R1881 concentration (SSAT; LNCaP cells, 1 nM vs 0.05 nM R1881) | increase in SSAT mRNA level (SSAT; R1881 treated LNCaP cells vs untreated control cells) [fold] | putrescine, spermidine, N-acetyl spermidine and N-acetyl spermine levels (LNCaP cells [3]) | spermine level (LNCaP cells [3]) | SSAT gene expression (microarray) [4] | nuclear and cytoplasmic ROS levels (v0 of DCFH dye oxidation) [5]
1 | Cc1c(C)c2c(c(C)c1O)CCC(C)(C)O2 [PMCoI, 2,2,5,7,8 pentamethyl 6-chromanol] | considerable cytotoxic, anti-proliferative and also anti-androgenic activities |  |  |  |  |  |  |  |  |  |  |  |  |  |  |  | 
2 | C[C@]1(O)CC[C@H]2[C@@H]3CCC4=CC(=O)CCC4=C3C=C[C@@]21C [metribolone, 17β-17-Hydroxy-17-methyl-estra-4,9,11-trien-3-one] |  | only a minor increase in ROS levels | high levels of ROS | 329 | 5.80 | 1.5 | 605 | 6.41 | 20 | less than 2 fold | over 8 fold | over-expressed only in cells treated with 1 nM R1881 | > 30 | increased | markedly decreased spermine level | highly overexpressed gene | increase over time
